Data from patent US20140315973A1, “PARP-1 INHIBITORS” (priority 2010, published 2014).

Assays:
HBV core promoter = test: Dual-luciferase reporter assay of HBV core promoter; type: cell-based, HBV genotype A
Excerpt: The HBV core promoter deletions were cloned using a multi-step strategy. First, the wild-type core promoter from HBV genotype A was inserted via KpnI and HindIII sites on the PGL3 Basic vector. Using this as the template, PGLF (5′ TCCCCAGTGCAAGTGCAGG) was used with reverse primer BX, where “X” denotes the deletion number and contains the nucleotide sequence flanking the 3′ end of the deletion. This amplifies the 5′ half of mutant core promoter. Primer CX containing nucleotide sequences flanking the 5′ end of the deletion site was then used with reverse primer PGLR (5′ […]) to synthesize the 3′ end of the mutant promoter. The 2 halves were annealed via their complementary sequences and amplified using primers PGLF and PGLR. PCR was performed using the Expand High Fidelity PCR System (Roche), and ran on 1% agarose gels in TBE buffer. DNA of appropriate sizes were extracted using the Qiaquick Gel Extraction Kit (Qiagen), double-digested with enzymes from New England BioLabs, then annealed using the Quick Ligation Kit.
Assays were performed with the Dual-Luciferase® Reporter Assay System (Promega) with modifications. HepG2 cells were seeded 18 hours prior to transfection in 24-well plates in triplicates at a density of 1.5×10^5 cells per well. Transfection was performed with 2.2 μl Lipofectamine 2000 (Invitrogen), 1 μg of PGL3 Basic construct plasmid and 15 ng of Renilla-luciferase construct per well. Additionally, 250 ng of over-expression plasmids for PARP-1 mutants were used when indicated. Transfected cells were lysed with 60 μl lysis buffer at 37° C. on a shaking incubator for 20 minutes after washing thrice with ice-cold PBS 30 hours post-transfection and 50 μl of the lysate was transferred on ice into black 96-well plates with clear bottoms (Corning), and luminescence measured with the GloMax® Multi-Microplate Multimode Reader (Promega).

HepG2 cells = test: Viable HBV-RFP transfected HepG2 cells; type: cell-based; conditions: 15 μM, 72 hours after PARP inhibition
Excerpt: (§1) The coding sequence for red fluorescent protein (RFP) was cut from the pTurboFP635N (Evrogen) and inserted into the pcDNA3.1+ vector containing the HBV construct into the MCS via KpnI and NotI sites.

HBV = HBV transcripts in HepG2 cells transfected with HBV-RFP; type: cell-based, HBV genotype A; conditions: 15 μM, added 24 hours after transfection, 48 hours later
Excerpt: Full-length replicative HBV genotype A (approximately 1.1X HBV genome starting from nucleotide 1535, ending at nucleotide 1930) driven by its own core promoter cloned from another construct and inserted into pcDNA3.1+ via the MfeI and MluI restriction sites, […] of the CMV promoter. Primers used are as follows: […]
as §1

breast or ovarian cancer = conditions: cited from earlier work

SMILES: NC(=O)c1cccc(N)c1 [3-AB, 3-aminobenzamide]
- transcription (luciferase expression) at wild-type HBV core promoter (HBV core promoter; HepG2, inhibitor added 24 hours after transfection): increased transcription at the HBV core promoter in a dose-dependent manner
- luciferase expression, mutant HBV core promoter with deletion of the PARP-1 binding site (Del-PARP1 motif) (HBV core promoter; HepG2 and Huh-7): negligible effect
- luciferase expression, wild-type HBV core promoter (HBV core promoter; Huh-7): increased luciferase expression

SMILES: CN(C)CC(=O)Nc1ccc2[nH]c(=O)c3ccccc3c2c1 [PJ-34]
- relative percentage of viable cells that were HBV-transfected vs DMSO control (HepG2 cells): significantly higher
- increase in relative amounts of HBV transcripts (HBV): more than 3 fold

SMILES: O=C(c1cc(Cc2n[nH]c(=O)c3ccccc23)ccc1F)N1CCN(C(=O)C2CC2)CC1 [olaparib]
- durable objective antitumor activity (breast or ovarian cancer; 60 patients, including 22 BRCA mutation carriers): observed only in confirmed carriers of a BRCA1 or BRCA2 mutation
- BRCA carriers with ovarian, breast, or prostate cancers showing a clinical benefit (breast or ovarian cancer; Twelve of 19 BRCA carriers): 63%
- side-effect profile (breast or ovarian cancer; phase 1, orally active): acceptable side-effect profile
